For one series, the system named is MCF-7 cells. The series can be described thus: Chemosensitivity (MTT cell viability) assay, MCF-7. Format: cell-based, human. The method, then:
All cytotoxicity assays were conducted using human cell lines: breast adenocarcinomas (MDA-MB-231 and MCF-7), pancreatic carcinoma (MIA PaCa-2) and non-cancerous epithelial retinal (ARPE-19) cell lines. All cell lines were routinely maintained as monolayer cultures in appropriate complete media:
MCF-7, MIA PaCa-2 and ARPE-19 in high glucose DMEM and MDA-MB-231 in RPMI-1640, and both media were supplemented with 10% FBS, 1 mM sodium pyruvate, 2 mM L-glutamine, and 1% pen-strep. All cells were initially grown in T-25 or T-75 flasks at 37 °C and 5% CO2. Before chemosensitivity studies, cell monolayers were passaged using trypsin-EDTA (0.05%) and diluted to a concentration of 1 x 10^4 cells/mL (or 4 x 10^4 cells mL for 24 h assays). All assays were conducted in 96-well plates, in which 100 µL of the cell suspension was added for 24 h at 37 °C and 5% CO2, and then 100 µL of compound/medium dilutions for a further 96 h (or 24 h). All compound stocks were made using sterile DMSO at 100 mM before dilution, and a maximum of 0.1% DMSO was used in each assay. After incubation, 3-(4,5-dimethylthiazol-2-yl)-2,5-diphenyltetrazolium bromide (20 µL, 5 mg/mL in PBS) was added to each well and incubated for 3 h at 37°C and 5% CO2. All solutions were then aspirated, DMSO (150 µL) added to each well, gently mixed, and the absorbance was measured at 540 nm using a ClarioStar spectrophotometer microplate reader. Results were plotted on a logarithmic scale, and the half maximal inhibitory concentration (IC50) was determined from a triplicate of triplicate repeats (n = 9) and reported as an IC 50 ± Standard Deviation (SD).

A further series deals with MDA-MB-231 cells. The series can be described thus: 3D spheroid live/dead viability assay. Format: cell-based, human. The note with it: MDA-MB-231 spheroids, 100 μM, 48 h. How it is done: 3D cell cultures of cancer are good models for preclinical cancer research, as they are more representative of tumor microenvironments. MDA-MB-231 cells were maintained using the standard cell culture methods before seeding into round-bottom ultralow-attachment plates for 3D culture. Once the cells were seeded, the plate was centrifuged to assist with cell clumping at the bottom of the well and facilitate uniform spheroid formation. After 24 h, medium containing collagen I was added, and the cells were allowed to aggregate further. After sufficient growth of the spheroids (Day 4 – Figure ), the cells were treated with 100 μM of 1 for 48 h. The higher concentration was chosen, as it has been reported that spheroids require higher drug doses than two-dimensional (2D) experiments.
Live and dead cells were then visualized using the LIVE/DEAD Viability/Cytotoxicity Kit by Invitrogen. […]
An equal volume of Annexin V and 7-AAD solution was added to 100 μL of the cell suspension, followed by a 20 min incubation at room temperature. The cells were then analyzed using the Muse Cell Analyzer (Merck Millipore). […]
A mixture of 50 μL of cell suspension and 5 μL of Caspase 3/7 antibody (diluted 1:8 in PBS) was prepared and incubated at room temperature for 30 minutes. […] Apoptotic cells were analyzed using the Muse Cell Analyzer. […]

In the series on MCF-7 cells (MCF-7, 96 h, n = 9), “[Cp*Ir(C16H14NO)(PTA)](PF6) [Compound 1]” showed an IC50 of 48 ± 3 µM. Further, the “Selectivity index (SI)” value in the series on MCF-7 cells (MCF-7 compared to ARPE-19, 96 h) turned out to be 0.2. Further, in the series on MDA-MB-231 cells, the “Cytotoxicity in 3D spheroids (live/dead staining)” value was “significant cytotoxicity”.

(Values after PMC12406195, “Understanding the Modes of Action of β‑Ketoiminato Iridium(III) Complexes in Cancer Cells” (Inorganic Chemistry, 2025).)
